Structures are written as SMILES. “And” between values parts separate entries of the source, which are not always exact repeats. Equal values may be shown once. Read-outs that look alike come from different tables or passages of the source.

This is an account of results in article PMC10985536, “Aqueous solution and solid-state behaviour of L-homophenylalanine: experiment, modelling, and DFT calculations” (RSC Advances, 2024).

Data set [1] can be described thus: Aqueous solubility of L-Hpa as a function of temperature and pH (isothermal equilibration, HPLC). The class given is physicochemical. The conditions noted are these: for Solubility in water: pure water (at pI). How it is done:
HPLC analysis was performed via a Dionex UltiMate3000 system manufactured by Thermo Scientific, Waltham. Two different HPLC methods were employed to quantify the L-Hpa concentration. The first method relies on a 150 mm long Crownpak (CR+) column (Daicel Corporation, Osaka) with a diameter of 4 mm and a particle size of 5 μm. Measurement took place at 298 K with an eluent flow rate of 0.8 mL min^−1 and an injection volume of 1 μL. Detection was achieved by light absorbance at 200 nm. Aqueous solution of perchloric acid with a pH of 2 was used as eluent. This method was developed in our lab but a similar one was employed in the literature.[14] The second method is based on another work,[31] where a Chirobiotic T column (Astec) with a length of 250 mm, a diameter of 4.6 mm and a particle size of 5 μm was utilized. 0.5 mL per L acetic acid was added to 0.01 mol per L ammonium acetate solution, which was then mixed with methanol in the volumetric ratio of 30/70 to produce the eluent. Measurements were done with an eluent flow rate of 0.5 mL min^−1 by adding 10 μL of sample and detection of light absorbance at 210 nm. Calibration was obtained by dissolving known amounts of L-Hpa in eluent and correlating the measured light absorbance to the concentration by linear regression.
pH measurements were performed with an MP225 pH meter with an InLab Micro Pro probe manufactured by Mettler Toledo, USA. The system is calibrated in regular intervals and each day the accuracy was checked by measuring pH standards at room temperature. At 298 K the pH values were stable and used for the evaluation, while for 328 K either the stable value or the value after 60 s was accepted to reduce the influence of cooling (and potential nucleation).
Equilibrium experiments at isothermal conditions were performed in tempered double jacketed glass reactors at different temperatures. First, L-Hpa, was mixed with water and dissolved completely by heating the suspension. The samples of about 10 mL were then brought to the target temperature at which they were allowed to equilibrate for at least 48 h while being stirred continuously. […] For selected samples at both saturation temperatures (298 K and 328 K), a solid–liquid separation was conducted by vacuum filtration and the obtained solids were analysed by HPLC and PXRD.
Most experiments for determination of pH-dependent solubilities were performed in the Crystalline multi reactor system, manufactured by Technobis Crystallization Systems, The Netherlands. […] Shortly before complete dissolution was detected visually, the buffer addition was stopped. […] On the next day, stirring was stopped, liquid samples were withdrawn and the pH was recorded. […]

For data set [2] the following is noted: heating 2 K min^-1, helium.
Procedure: TG was performed with a Sensys Evo twin type instrument manufactured by Setaram Instrumentation, France. Grinded samples of about 4 to 7 mg L-Hpa were weighed into open 100 μL aluminium crucibles and analysed with a linear temperature program under a helium (5.0) atmosphere. For the measurement, the following heating program was employed: starting at 298 K heating to 673 K with 2 K min^−1 and subsequent cooling to 298 K with 5 K min^−1. […] Temperature calibration of the instrument is performed regularly using the melting temperatures of highly pure indium, tin, zinc and lead at different heating rates.
On the set-up of data set [3]: method as in PMID 17874082. The conditions noted are these: cited from earlier work.

With `N[C@@H](CCc1ccccc1)C(=O)O` [L-Hpa, L-homophenylalanine], the Solubility in water in data set [1] (298 K) was 0.0075 mol%; in data set [1] (328 K), 0.0153 mol% and 0.015 mol%. In addition, in data set [1] (pH 1.07, 328 K, perchloric acid buffer), the Highest solubility observed is on record as 0.278 mol%. The “Solubility increase at sufficiently low or high pH” value in data set [1] (pH 1.5 or 10.5) is on record as “increase almost twentyfold”. Moreover, the results for the TG mass loss result in data set [2] (at about 520 K) and in data set [2] (up to about 560 K) were “ca. 10 wt%” and 95 wt%, respectively.

Turning to `N[C@@H](Cc1ccccc1)C(=O)O` [Phenylalanine], in data set [3], the “pKa(2) (NH3), experimental” value is recorded as 9.17 ± 0.06.

Turning to `N[C@@H](Cc1c[nH]cn1)C(=O)O` [histidine], in data set [3], the “pKa(1) (COOH), experimental” value was 1.64 ± 0.45 and the “pKa(2) (NH3), experimental” value is 9.14 ± 0.08.
